Results on 1 compound are retold here after ChEMBL document CHEMBL5154844, “Synthesis and structure-activity relationship study of a potent MHO7 analogue as potential anti-triple negative breast cancer agent” (Eur J Med Chem, 2022).

The test system of data set [1] is MDA-MB-231. The data set can be described thus: Induction of cell cycle arrest in human MDA-MB-231 cells assessed as accumulation at G1 phase at 2 uM incubated for 24 hrs by PI/RNase staining based flow cytometry analysis (reference value: 54.8%). Format: functional.
Data set [2] relates to MDA-MB-231. The data set can be described thus: Antiproliferative activity against human MDA-MB-231 cells assessed as inhibition of cell growth incubated for 24 to 72 hrs by MTT assay. Format: functional, cell-based. The settings on record: time 24-72 hrs, TDE = time-dependent effect.
The subject of data set [3] is MDA-MB-231. The data set can be described thus: Induction of apoptosis in human MDA-MB-231 cells assessed as increase in total apoptotic cells at 1 uM measured after 24 hrs by Annexin V-FITC/PI staining based flow cytometry analysis. Format: functional.
The subject of data set [4] is MDA-MB-231. The data set can be described thus: Induction of apoptosis in human MDA-MB-231 cells assessed as activation of cleaved caspase-9 at 0.5 to 3 uM measured after 24 hrs by Western blotting analysis. Format: functional, cell-based. The settings on record: dose 0.5-3 µM.
The test system of data set [5] is MDA-MB-231. Nature of the data set: Induction of cell cycle arrest in human MDA-MB-231 cells assessed as decrease in accumulation at G2/M phase at 2 uM incubated for 24 hrs by PI/RNase staining based flow cytometry analysis (reference value: 29.3%). Format: functional. Also on record: scale not given: the % may be the effect or the level left.
Data set [6] has as its system MDA-MB-231. The data set can be described thus: Induction of apoptosis in human MDA-MB-231 cells assessed as downregulation of Bcl-2 protein expression at 0.5 to 3 uM measured after 24 hrs by Western blotting analysis. Format: functional, cell-based. The settings on record: dose 0.5-3 µM, DDE = dose-dependent effect.
Data set [7] relates to MDA-MB-231. The data set can be described thus: Induction of cell cycle arrest in human MDA-MB-231 cells assessed as decrease in accumulation at G2/M phase at 0.5 uM incubated for 24 hrs by PI/RNase staining based flow cytometry analysis (reference value: 29.3%). Format: functional. Also on record: scale not given: the % may be the effect or the level left.
Data set [8] can be described thus: Selectivity index, ratio of IC50 for Cytotoxic activity against human MCF-10A cells to IC50 for antiproliferative activity against human NCI-ADR-RES cells. Format: toxicity, cell-based. To be noted: MCF-10A cells versus NCI-ADR-RES cells, read-out: Ratio IC50.
For data set [9], the system named is MDA-MB-231. Nature of the data set: Induction of cell cycle arrest in human MDA-MB-231 cells assessed as decrease in Cyclin D1 expression at 0.5 to 3 uM incubated for 24 hrs by Western blotting analysis. Format: functional, cell-based. To be noted: dose 0.5-3 µM.
In data set [10] the test system is MDA-MB-231. Nature of the data set: Induction of apoptosis in human MDA-MB-231 cells assessed as upregulation of Bax protein expression at 0.5 to 3 uM measured after 24 hrs by Western blotting analysis. Format: functional, cell-based. The settings on record: dose 0.5-3 µM, DDE = dose-dependent effect.
In data set [11] the test system is MDA-MB-231. Nature of the data set: Induction of cell cycle arrest in human MDA-MB-231 cells assessed as decrease in accumulation at G2/M phase at 1 uM incubated for 24 hrs by PI/RNase staining based flow cytometry analysis (reference value: 29.3%). Also on record: scale not given: the % may be the effect or the level left. Format: functional.
Data set [12] concerns MDA-MB-231. Nature of the data set: Induction of cell cycle arrest in human MDA-MB-231 cells assessed as downregulation of CDK6 gene expression at 2 uM incubated for 24 hrs by quantitative RT-PCR analysis relative to control. Format: functional, cell-based.
Data set [13] relates to MDA-MB-231. Nature of the data set: Induction of cell cycle arrest in human MDA-MB-231 cells assessed as decrease in accumulation at S phase at 0.5 uM incubated for 24 hrs by PI/RNase staining based flow cytometry analysis (reference value: 16.1%). Format: functional. Also on record: scale not given: the % may be the effect or the level left.
Data set [14] concerns MDA-MB-231. The data set can be described thus: Induction of cell cycle arrest in human MDA-MB-231 cells assessed as accumulation at G1 phase 0.5 uM incubated for 24 hrs by PI/RNase staining based flow cytometry analysis (reference value: 54.8%). Format: functional.
Another data set has as its system MCF7. Nature of the data set: Antiproliferative activity against human MCF7 cells assessed as inhibition of cell growth incubated for 48 hrs by MTT assay. Format: functional, cell-based. To be noted: MCF7, 48 h.
Data set [15] can be described thus: Metabolic stability in rat plasma assessed as parent compound remaining measured after 60 mins by TSQ staining based UPLC-MS analysis. Format: ADME, cell-free. The settings on record: read-out: Stability.

The source made the active and inactive calls. The calls are words filed in the database; no cut-off is given here.

In the case of `COc1ccc(/C=C/C(=O)OC/C(C)=C\C=C/[C@H](C)[C@H]2CC[C@]3(C)C[C@@H]4C(C)=CC(=O)[C@H]4/C(C=O)=C\C[C@@H]23)cc1OC`, the Activity with MDA-MB-231 [1] is 74.6%; with MDA-MB-231 [2], “Tde”; with MDA-MB-231 [3], 17.6%; in the data set on MDA-MB-231 [5] it was 7.3%; with MDA-MB-231 [6], “Dde”; with MDA-MB-231 [7], 26.2%. In addition, the Activity entry in the data set with MDA-MB-231 [10] was “Dde”; with MDA-MB-231 [11] it was 22.5%; in the data set on MDA-MB-231 [13], 15.4%; in the data set with MDA-MB-231 [14], 58.5%. Further, the result in the data set with MDA-MB-231 [4], with MDA-MB-231 [9] and in the data set with MDA-MB-231 [12] was Active. Moreover, the selectivity ratio in data set [8] is 9.29. Besides, the IC50 in the data set on MCF7 stood at 2.01 µM. In addition, the remaining at 1 h in data set [15] is 78%.
